Measurements reported in patent US5693677A, “Ceramide 3 derivatives based on monounsaturated fatty acids” (Gist-brocades N.V., priority 1994, dated 1997).
≈ marks a conversion by molar mass, not a printed value.

Tests used:
[1] = Solubility of ceramide 3 derivatives in emollients (visual inspection, maximum concentration before cloudiness); format: physicochemical; settings: for solubility: organic solvent or mixture
Method: The compound produced in Example 1, N-oleoyl phytosphingosine (also called Ceramide IIIB) was tested by solubilisation in isocetyl alcohol (Eutanol™ G16, Henkel), isostearic acid (Emersol, Henkel), triglycerides (Myritolo 318, J. Dekker), wallnut oil (J. Dekker) and avocado oil (J. Dekker).
Increasing amounts of the compound were added to the solvent and stirred under nitrogen for 30 minutes at 45° C. After cooling to room temperature (22° C.±2° C.) the solutions were kept in the dark. After 1, 24 and 48 hours the solutions were visually inspected. The maximum concentration was determined before the solution turned cloudy, indicating the presence of insoluble crystals.
The solubility of a saturated ceramide 3 derivative, N-stearoylphytosphingosine, was also determined.

[2] = Thermo-gravimetric analysis (TG/DTA) of ceramides, oxidation stability; format: physicochemical; settings: 5° C./min; for Stability in thermo-gravimetric analysis: 25° to 180° C., oxygen (100 ml/min), in words
Method: Thermo-gravimetry (TG) and Differential Thermo-gravimetric Analysis (DTA) were carried out using the SSC 5200 system of Seiko, provided with the TG/DTA furnaces. Standard procedures were used to obtain the desired data.
Atmosphere oxygen (100 ml/min)
Reference empty, open Pt pan
Sample size ± 5 mg powder
Sample container open Pt pan

SDS-damaged skin [3] = assay: Effects of ceramide IIIB formulations on SDS-damaged skin, skin humidity (corneometry); format: in vivo, human (female volunteers); settings: skin pretreated with a surfactant (SDS), topical
Method: The corneometer CM 820 PC (Courage and Khazaka, Cologne, Germany) registers the electrical capacitance of the skin surface, which is a measure of the degree of moisture on the skin's surface. The capacitance is expressed digitally in arbitrary units (a.u.). Three measurements were performed on each test area and the mean was used to define hydration state of the stratum corneum.
(§1) after damaging the skin with SDS
(§2) 1 hour after last application on days 3, 7, 14
(§3) Five female volunteers at the age of 22-43 years with healthy skin were included in the test.
(§4) Measurements were carried out at a temperature of 22°±1° C. and a relative humidity of 60±10%. Subjects were accustomed to ambient conditions for 20 min prior to any measurement. The test was carried out on the volar forearms. The skin of the forearms was treated with a 5% aqueous solution of sodium lauryl sulphate (SDS) and an occlusive dressing applied. The dressing was removed 2 h later, and the regions gently washed with water and air-dried. After 30 min the measurements were done. Then the three test products were applied, one area remained untreated. The dose of application was about 2 mg/cm^2. In the following 14 days a home application in the morning and evening took place.
Measurements were evaluated during the treatment period on day 3, 7 and 14 one hour after the last daily application. […]

SDS-damaged skin [4] = assay: Effects of ceramide IIIB formulations on SDS-damaged skin, trans-epidermal water loss (TEWL); format: in vivo, human (female volunteers); settings: 0.2 and 0.5% Ceramide IIIB
Method: (§5) Measurements of trans-epidermal water loss (TEWL) were performed with the Tewameter (Courage & Khazaka, Cologne, Germany). The Tewameter is a device for measurement of water evaporation on skin surfaces based on the diffusion principle discovered by A. Fick in 1885.
as §1, §2, §3, §4
Measurements were evaluated during the treatment period on day 3, 7 and 14 one hour after the last daily application. Use of other cosmetic products was restricted on the test areas throughout the whole study.

skin (SDS-challenge) = assay: Protective effects of ceramide IIIB formulations against SDS-challenge, TEWL; format: in vivo, human (female volunteers); settings: pretreatment, in words (TEWL and skin colour)
Method: as §5
before start of treatment;
two hours after last application on day 7;
2 hours after irritation with SDS (2 h under occlusion).
Two panels of each five female volunteers at the age of 19-55 years with healthy skin were included in the test.
Measurements were carried out at a temperature of 22°±1° C. and a relative humidity of 60±10%. Subjects were accustomed to ambient conditions for 20 min prior to any measurement. The test was carried out on the volar forearms. Initially untreated skin was measured in all four areas to find baseline values. Then the three test products were applied, one area remained untreated. The dose of application was about 2 mg/cm^2. In the following 7 days a home application in the morning and evening took place. Measurements were evaluated during the treatment period on day 7 two hours after the last daily application. […]
The results of TEWL and skin colour measurements are presented in respectively FIGS. 5 and 6. Values are expressed as (Valueday7 -Valueday0)/Valueday0 ×100%.

| solubility ([1]; avocado oil) [µg/mL] | solubility ([1]; emersol (isostearic acid)) [µg/mL] | solubility ([1]; eutanol g16 (isocetyl alcohol)) [µg/mL] | solubility ([1]; myritol 318 (triglycerides)) [µg/mL] | solubility ([1]; wallnut oil) [µg/mL] | Temperature at which weight increase (oxidation) followed by decomposition starts ([2]; oxygen) | Structure (SMILES) | Stability in thermo-gravimetric analysis [2] | Solubility compared with saturated analogue ([1]; emollients, in words) | Recovery of diminished water-retaining properties of skin (SDS-damaged skin [3]) | TEWL dose-response (SDS-damaged skin [4]) | Protection from SDS-induced skin damage (skin (SDS-challenge)) |
| --- | --- | --- | --- | --- | --- | --- | --- | --- | --- | --- | --- |
| 50 (≈ 85.6 µM) | 600 (≈ 1030 µM) | 1600 (≈ 2740 µM) | 50 (≈ 85.6 µM) | 50 (≈ 85.6 µM) | – | CCCCCCCCCCCCCCCCCC(=O)N[C@@H](CO)[C@H](O)[C@H](O)CCCCCCCCCCCCCC [Ceramide III, N-stearoylphytosphingosine, reference compound] | most stable compound as is illustrated by the absence of change of weight | – | – | – | – |
| – | – | – | – | – | ca. 80 °C | CCCCC/C=C\C/C=C\CCCCCCCC(=O)N[C@@H](CO)[C@H](O)[C@H](O)CCCCCCCCCCCCCC [sample IIIA, N-linoleoylphytosphingosine] | increase in weight (oxidation) followed by decomposition | – | – | – | – |
| < 200 | 8000 (≈ 13700 µM) | 12000 (≈ 20600 µM) | 800 (≈ 1370 µM) | 200 (≈ 344 µM) | – | CCCCCCCC/C=C\CCCCCCCC(=O)N[C@@H](CO)[C@H](O)[C@H](O)CCCCCCCCCCCCCC [Ceramide IIIB, N-oleoylphytosphingosine] | behaviour similar to ceramide 3, although showing a steadily increasing baseline, probably due to hydration. However, no sudden increase in weight followed by decomposition is observed | solubilizes much better than its saturated analogue | high capacity for recovering diminished water-retaining properties of the skin | a clear dose-response effect | protects the skin from SDS-induced damage |
